Where no end group is shown, it is not given here.
How the values were obtained:
[1] = test system: nectin 4 protein on NIH:OVCAR-5 cells; test: Effect of peptides on anti-Nectin-4 antibody binding to cells as determined by flow cytometry; assay type: cell-based, human; details: for IgG MFI: IgG control primary antibody; for nectin-4 antibody binding compared to untreated control cells (in words): flow cytometry; for Flow binding: summary table, Nectin-4 antibody binding relative to control = 100
Method: Confluent monolayers of cells were detached from 75 cm^2 tissue culture flasks using Accutase cell dissociation buffer (Innovative Cell Technologies, San Diego, Calif.), washed, and labeled with mouse IgG or mAbs against Nectin-4 or Nectin-1 (2.5 μg/10^6 cells) in Flow Buffer [phosphate buffered saline (PBS) containing 2.5% newborn calf serum and 0.02% sodium azide] for 30 min at 4° C.. Cells were washed and incubated with goat anti-mouse IgG F(ab′)2 (Jackson ImmunoResearch, West Grove, Pa.), then washed again and incubated with streptavidin-allophycocyanin conjugate (Jackson ImmunoResearch, West Grove, Pa.) for 30 min each. Cells were washed and fixed in Flow Buffer containing 1% formaldehyde and analyzed in the University of Minnesota Flow Cytometry Resource with a BD Accuri™ C6 flow cytometer (BD Biosciences, San Jose, Calif.) using the Accuri™ software.
Briefly, NIH:OVCAR-5 cells that natively express a moderate amount of nectin 4 protein were incubated for 30 minutes in 150 μg/mL of soluble peptide in DMSO. After incubation, the cells were washed, and then triple antibody stained using mouse anti-nectin 4 (or IgG control) primary antibody, biotinylated goat anti-mouse secondary antibody, and streptavidin APC tertiary antibody. Finally, utilizing the University of Minnesota flow core's Accuri C6 flow cytometer, the relative antibody binding affinity for control and peptide-treated samples was quantitated and compared. Data was collected for each of the 57 peptides generated.

[2] = test system: ovarian cancer cell aggregation and spheroid formation; test: Spheroid assay for peptides (visual scale +1 to +5); assay type: cell-based, human; details: visual scale of +1 to +5
Method: Spheroids were formed from the NIH:OVCAR5 cell lines described above using the liquid overlay method. One milliliter of a single cell suspension was seeded at a concentration of 50,000 cells/ml in OptiMEM® media, into 24-well tissue culture plates coated with 0.5% Seakem agarose (in complete RPMI-1640). Plates were incubated at 37° C. in a humidified incubator with 5% CO2. At various time points up to 5 days, the plates were removed from the incubator and the spheroids were photographed with a Nikon CoolPix digital camera mounted on an Olympus CK2 inverted microscope with a 4× objective. The size of the spheroids was determined using the measure tool in Adobe Photoshop. The largest spheroids were quantified (20-90 spheroids/well), in a minimum of 8 wells, for a total of >300 spheroids per cell type.
The clinical relevance is that by blocking the formation of spheroids, the cells will be more sensitive to chemotherapy (which targets the single cells that proliferate more rapidly than spheroids).
The spheroid assay for peptides 1-30 were scored using a visual scale of +1 to +5. The controls were scored at +2 (24 hrs) and +4 (48 hrs). […] It may be harder to visually assess the size at 24 hours, since the spheroids are relatively small, but and perhaps some of the peptides are affecting cell division, and that is why the spheroids are smaller than the controls at 48 hours, but not 24 hrs (this can be easily assayed with an MTT assay).

[3] = Run Five, 150 μg/mL peptide, 30 minutes, Control 5 = 17,768.90
[4] = Run Five, Control 5 = 2.142155332
[5] = Run Five, antibody binding relative to Control 5 = 100
[6] = Run Three, 150 μg/mL peptide, 30 minutes, Control 3 = 13,070.20
[7] = Run Three, antibody binding relative to Control 3 = 100.00
[8] = Run Four, 150 μg/mL peptide, 30 minutes, Control 4 = 9,631.58
[9] = Run Four, Control 4 = 9.387504873
[10] = Run Four, antibody binding relative to Control 4 = 100

## TNPIGTRSGQVEVN-NH2 (listed as Homo sapiens) [Peptide 54]
[1]; [3]
  N4 MFI: 19,706.27
[1]; [4]
  N4 MFI/IgG MFI: 2.253
[1]; Run Five, Control 5 = 8,294.87
  IgG MFI: 8,747.26
[1]; [5]
  nectin-4 antibody binding, percent of control: 115.7

## VLAPYRERVEFLRP-NH2 (listed as Homo sapiens) [Peptide 35]
[1]; [6]
  N4 MFI: 15,767.33
[1]; Run Three, Control 3 = 9.83
  N4 MFI/IgG MFI: 8.59
[1]; Run Three, Control 3 = 1330
  IgG MFI: 1835
[1]; [7]
  nectin-4 antibody binding, percent of control: 118.67
[1]; 150 μg/mL peptide
  nectin-4 antibody binding compared to untreated control cells (in words): increased nectin-4 antibody binding
[1]
  Flow binding: 119%

## GFIGTDVVLHCSFA-NH2 (listed as Homo sapiens) [Peptide 31]
[1]; [6]
  N4 MFI: 15,498.21
[1]; Run Three, Control 3 = 9.83
  N4 MFI/IgG MFI: 8.83
[1]; Run Three, Control 3 = 1330
  IgG MFI: 1756
[1]; [7]
  nectin-4 antibody binding, percent of control: 117.05
[1]; 150 μg/mL peptide
  nectin-4 antibody binding compared to untreated control cells (in words): increased nectin-4 antibody binding
[1]
  Flow binding: 117%

## NYSLAGTYICEATN-NH2 (listed as Homo sapiens) [Peptide 53]
[1]; [3]
  N4 MFI: 40,909.47
[1]; [4]
  N4 MFI/IgG MFI: 1.37
[1]; Run Five, Control 5 = 8,294.87
  IgG MFI: 29,864.47
[1]; [5]
  nectin-4 antibody binding, percent of control: 116.6

## NGKPPSVVSWETRL-NH2 (listed as Homo sapiens) [Peptide 42]
[1]; [8]
  N4 MFI: 9,416.50
[1]; [9]
  N4 MFI/IgG MFI: 7.497
[1]; Run Four, Control 4 = 1,026
  IgG MFI: 1256
[1]; [10]
  nectin-4 antibody binding, percent of control: 94.83

## TNWIEGTQAVLRAKKGQ-NH2 (listed as Homo sapiens) [Peptide 40]
[1]; [6]
  N4 MFI: 10,121.20
[1]; Run Three, Control 3 = 9.83
  N4 MFI/IgG MFI: 7.11
[1]; Run Three, Control 3 = 1330
  IgG MFI: 1423
[1]; [7]
  nectin-4 antibody binding, percent of control: 74.09

## CKADANPPATEYHWT-NH2 (listed as Homo sapiens) [Peptide 50]
[1]; [8]
  N4 MFI: 11,341.38
[1]; [9]
  N4 MFI/IgG MFI: 4.306
[1]; Run Four, Control 4 = 1,026
  IgG MFI: 2634
[1]; [10]
  nectin-4 antibody binding, percent of control: 101.2

## QRITHILHVSFLAE-NH2 (listed as Homo sapiens) [Peptide 18]
[2]; 24 hrs, Control = 2
  Spheroid-24: 3
[2]; 48 hrs, Control = 4
  Spheroid-48: 5

## ACIVNYHMDRFKES-NH2 (listed as Homo sapiens) [Peptide 46]
[1]; [8]
  N4 MFI: 10,569.90
[1]; [9]
  N4 MFI/IgG MFI: 6.623
[1]; Run Four, Control 4 = 1,026
  IgG MFI: 1596
[1]; [10]
  nectin-4 antibody binding, percent of control: 104.3

## LSRLELEDEGVYIC-NH2 (listed as Homo sapiens) [Peptide 37]
[1]; [6]
  N4 MFI: 46,393.69
[1]; Run Three, Control 3 = 9.83
  N4 MFI/IgG MFI: 11.38
[1]; Run Three, Control 3 = 1330
  IgG MFI: 4078
[1]; [7]
  nectin-4 antibody binding, percent of control: 360.43

## TWQKSTNGSKQNV-NH2 (listed as Homo sapiens) [Peptide 33]
[1]; [6]
  N4 MFI: 10,425.01
[1]; Run Three, Control 3 = 9.83
  N4 MFI/IgG MFI: 8.31
[1]; Run Three, Control 3 = 1330
  IgG MFI: 1255
[1]; [7]
  nectin-4 antibody binding, percent of control: 78.11

## WTTLNGSLPKGVEA-NH2 (listed as Homo sapiens) [Peptide 51]
[1]; [3]
  N4 MFI: 14,202.55
[1]; [4]
  N4 MFI/IgG MFI: 1.539
[1]; Run Five, Control 5 = 8,294.87
  IgG MFI: 9,230.44
[1]; [5]
  nectin-4 antibody binding, percent of control: 52.48
[1]; 150 μg/mL peptide
  nectin-4 antibody binding compared to untreated control cells (in words): reduction in nectin-4 antibody binding
[1]
  Flow binding: 53%

## GQGLTLAASCTAEG-NH2 (listed as Homo sapiens) [Peptide 12]
[1]; Run One, 150 μg/mL peptide, 30 minutes, Control 1 = 15,015
  N4 MFI: 11,052
[1]; Run One, 150 μg/mL peptide, 30 minutes, Control 1 = 1,670
  IgG MFI: 2,827
[1]; Run One, Control 1 = 8.99
  N4 MFI/IgG MFI: 3.91
[1]; Run One, antibody binding relative to Control 1 = 100.00
  nectin-4 antibody binding, percent of control: 61.63
